Test results published in the NIST ThermoML archive (doi:10.1016/j.fluid.2009.01.004).
Numbers after ± are expanded uncertainties.

Assay: xn = mol fraction of the nth substance listed
Details: 101 kPa, Liquid, Capillary tube (Ostwald / Ubbelohde) method

CCN(CC)CC [triethylamine] + O
viscosity [mPa·s]
Details	x1 = 0.019	x1 = 0.042	x1 = 0.077	x1 = 0.106	x1 = 0.151	x1 = 0.21	x1 = 0.293	x1 = 0.415	x1 = 0.615	x1 = 1
283.15 K	2.52 ± 0.018	4.075 ± 0.029	5.547 ± 0.038	6.629 ± 0.043	6.651 ± 0.043	5.635 ± 0.038	4.242 ± 0.03	2.821 ± 0.021	1.84 ± 0.014	0.4275 ± 0.004
286.15 K	2.211 ± 0.016	3.512 ± 0.025	4.761 ± 0.034	5.476 ± 0.037	5.497 ± 0.038	4.801 ± 0.034	3.679 ± 0.026	2.511 ± 0.018	1.531 ± 0.012	0.414 ± 0.0039
288.15 K	2.033 ± 0.015	3.199 ± 0.023	4.242 ± 0.03	4.748 ± 0.033	4.769 ± 0.034	4.302 ± 0.03	3.366 ± 0.024	2.333 ± 0.017	1.354 ± 0.01	0.4051 ± 0.0038
290.15 K	1.875 ± 0.014	2.948 ± 0.021	3.764 ± 0.027	4.07 ± 0.029	4.092 ± 0.029	3.85 ± 0.028	3.115 ± 0.023	2.175 ± 0.016	1.195 ± 0.0094	0.3961 ± 0.0038
291.15 K	1.804 ± 0.014	2.846 ± 0.021	3.53 ± 0.025	3.751 ± 0.027	3.773 ± 0.027	3.644 ± 0.026	3.013 ± 0.022	2.104 ± 0.016	1.124 ± 0.01	0.3917 ± 0.0037
291.35 K	1.792 ± 0.013	2.831 ± 0.021	3.482 ± 0.025	3.677 ± 0.026	3.699 ± 0.026	3.611 ± 0.026	2.998 ± 0.022	2.093 ± 0.016	1.113 ± 0.01	0.391 ± 0.0037

O [water] + CCN(CC)CC
x2 = 0
Details	viscosity [mPa·s]
283.15 K	1.306 ± 0.01
286.15 K	1.206 ± 0.0094
288.15 K	1.144 ± 0.009
290.15 K	1.085 ± 0.0086
291.15 K	1.058 ± 0.0084
291.35 K	1.053 ± 0.0083
